According to article PMC11277421, “Advancing Cardiovascular Drug Screening Using Human Pluripotent Stem Cell-Derived Cardiomyocytes” (International Journal of Molecular Sciences, 2024):
Entries after “also recorded” stand apart in the source; their conditions may differ.

Key:
iPSC-CMs [1] = test: Cardiotoxicity test: spontaneous calcium oscillations (FLIPR, EarlyTox dye); settings: for EC50: Homo sapiens, iPSC-CM, read-out: EC50 (beating rate, calcium oscillations); for effect on beating rate: iPSC-CMs, concentration-dependent
Procedure: Spontaneous calcium oscillations in iPSC-CMs were measured using the FLIPR system in the absence or presence of test compounds. […] This approach allowed the evaluation of proarrhythmic effects of drug candidates based on calcium dynamics occurring within the iPSC-CMs.
Figure 4 Utilization of hPSC-CMs as a platform for high-throughput testing of the cardiotoxicity and effectiveness of drugs. Spontaneous calcium oscillations in iPSC-CMs were measured using the FLIPR system in the absence or presence of test compounds. (a,b) Cardiotoxicity test. […] (b) Testing of the compounds known for their adverse effects in humans. […] (c,d) Efficacy test. (c) iPSC-CMs (c1) and ESC-CMs (c2) were treated with 200 nM ATX-II, a late inward sodium current inducer, which produces atrial arrhythmias mimicking the LQT3 phenotype, followed by exposure to a test compound. […] Error bars, mean ± SEM (N = 3). Asterisks, *—statistically significant differences (Student’s t-test; p < 0.05).
Spontaneous calcium transients in contracting CMs were monitored using the FLIPR Tetra® High Throughput Cellular Screening System (Molecular Devices). hPSC-CMs were plated on the Matrigel-coated wells (8 × 10^4 cells per well) of a 96-well plate. Confluency was monitored after 2 days, and the strong synchronous contractions of cells were confirmed prior to the cardiac calcium oscillation assay. Experiments were conducted after 7–10 days of cell culture. The EarlyTox^TM Cardiotoxicity Kit (Molecular Devices) was used; a calcium-sensitive fluorescent dye was added to the plate according to the manufacturer’s instructions and incubated for 2 h at 37 °C. […] Calcium oscillations were measured at 20, 40, and 60 min after treatment. The acquired data were analyzed for beat frequency and peak width at 10% amplitude using ScreenWorks Peak Pro software version 2.0 (Molecular Devices).

ESC-CMs = test: Efficacy test: ATX-II-induced LQT3 phenotype, calcium oscillations in ESC-CMs; assay type: cell-based, human; settings: for average peak width after ATX-II, reversal by test compound: ESC-CMs pretreated with 200 nM ATX-II
Description: (§1) (a,b) Cardiotoxicity test. […] (c,d) Efficacy test. […] Error bars, mean ± SEM (N = 3).
(§2) For the efficacy test (Figure 4c), iPSC-CMs and ESC-CMs were generated as previously mentioned and used to screen effective compounds for reversing arrhythmia phenotype.

iPSC-CMs [2] = test: Efficacy test: ATX-II-induced LQT3 phenotype, calcium oscillations in iPSC-CMs; assay type: cell-based, human; settings: for average peak width after ATX-II, reversal by test compound: iPSC-CMs pretreated with 200 nM ATX-II
Description: as §1, §2

hPSCs = test: Optimization of CHIR99021 concentration for hPSC-CM generation (morphology, cTnT FACS); assay type: cell-based, human; settings: tested 0, 6, 9, 12 μM; morphology and cTnT expression on D10
Description: To optimize the culture conditions for CM generation from hPSCs (iPSCs and ESCs), cells were propagated on Matrigel-coated culture plates with maintenance medium, as described in the Section 4. Subsequently, hPSCs underwent differentiation for 10 days, followed by maturation for another 10 days or longer if needed (Figure 1a). For the initial induction of mesodermal differentiation, CHIR99021, a GSK3 inhibitor and Wnt activator, was used. On the first day of hPSC cm generation, hPSCs were treated with CHIR99021 at various concentrations (0, 6, 9, and 12 μM) (Figure 1b). The optimal concentration of CHIR99021 for the efficient generation of hPSC-CMs was determined to be 9 μM based on their morphology and cTnT expression (Figure 1b). For further differentiation into cardiac progenitor cells, Wnt-C59, a small molecule that inhibits Wnt palmitoylation, was added to the differentiation medium from D2 to D4. For late differentiation into contracting CMs from D6 to D10, insulin was added. Contracting CMs were observed between D9 and D11 (Supplementary Figure S1). During differentiation over 10 days, there were changes in the expression levels of CM-related genes (Figure 1c). […] Moreover, GATA4, NKX2.5, TBX5, and ISL1, transcription factors that play key roles in cardiac development, were highly expressed on D10 compared with D0 or D5, indicating the induction of cardiac lineage cells. […]

Compound	EC50 (iPSC-CMs [1]) [µM]	effect on beating rate (iPSC-CMs [1])	other results
COc1ccc([C@@H]2Sc3ccccc3N(CCN(C)C)C(=O)[C@@H]2OC(C)=O)cc1 [diltiazem]	5.97	increased the beating rate	–
CC(C)c1nc(CN(C)C(=O)N[C@H](C(=O)N[C@@H](Cc2ccccc2)C[C@H](O)[C@H](Cc2ccccc2)NC(=O)OCc2cncs2)C(C)C)cs1 [ritonavir]	6.09	inhibited the beating rates	–
O=C(NCC1CCCCN1)c1cc(OCC(F)(F)F)ccc1OCC(F)(F)F (centres unmarked) [flecainide]	17.5	inhibited the beating rates	–
COc1ccc(CCN(C)CCCC(C#N)(c2ccc(OC)c(OC)c2)C(C)C)cc1OC (centres unmarked) [verapamil]	0.522	increased the beating rate	–
CCCN(CCc1cccs1)[C@H]1CCc2c(O)cccc2C1 [rotigotine]	–	–	average peak width after ATX-II, reversal by test compound (ESC-CMs): restored to the level of untreated control cells; also recorded: significantly reverted the average peak width to the level of untreated control cells; average peak width after ATX-II, reversal by test compound (iPSC-CMs [2]): restored to the level of untreated control cells; also recorded: significantly reverted the average peak width to the level of untreated control cells
Cc1c[nH]c(-c2cnc(NCCNc3ccc(C#N)cn3)nc2-c2ccc(Cl)cc2Cl)n1 [CHIR99021]	–	–	optimal concentration for efficient generation of hPSC-CMs (hPSCs): 9 µM
CCCN1CCCC[C@H]1C(=O)Nc1c(C)cccc1C [ropivacaine]	–	–	average peak width after ATX-II, reversal by test compound (ESC-CMs): restored to the level of untreated control cells; also recorded: significantly reverted the average peak width to the level of untreated control cells; average peak width after ATX-II, reversal by test compound (iPSC-CMs [2]): restored to the level of untreated control cells; also recorded: significantly reverted the average peak width to the level of untreated control cells
CN(CCOc1ccc(NS(C)(=O)=O)cc1)CCc1ccc(NS(C)(=O)=O)cc1 [dofetilide]	0.018	decrease in the beating rate	–
ATX-II: late inward sodium current inducer known to produce atrial arrhythmias, mimicking LQT3	–	–	average peak width (effect of ATX-II itself) (ESC-CMs; 200 nM, ESC-CMs): higher average peak widths; average peak width (effect of ATX-II itself) (iPSC-CMs [2]; 200 nM, iPSC-CMs): higher average peak widths
